Measured values published in US20230090337A1, “PHARMACEUTICAL FORMULATIONS COMPRISING 6-CHLORO-7-(4-(4-CHLOROBENZYL)PIPERAZIN-1 -YL)-2-(1,3-DIMETHYL-1 HPYRAZOL-4-YL)-3H- IMIDAZO[4,5-B]PYRIDINE” (ELLIPSES PHARMA LTD, priority 2020, published 2023).
Like-named read-outs stand apart in the source and are kept apart here. One block for each compound: values may come before it.

How the values were obtained:
[1] = Aqueous solubility of salt versus free base; assay type: physicochemical
[2] = Stability / hygroscopicity of salts; assay type: physicochemical; details: e.g. due to lower hygroscopicity
[3] = Solubility of the compound of Formula (1) in non-ionic surfactants; assay type: physicochemical; details: thermodynamic from solid
Method: Approximately 3 mg of the compound of Formula (1) (monofumarate) was weighed out into clean HLPC vials. Various non-ionic surfactants were added in 200 or 300 μL portions up to 1 ml in total. After each addition, the sample was with vortexed (2×30 seconds) sonicated for 6 minutes, and once 1 ml total had been added the sample was kept in an oven at 45° C. for 40 minutes before being cooled to RT to aid dissolution. Observations are provided below:
Those excipients that have a melting point above ambient temperature were heated to above their melting point (e.g. 50° C.-70° C.) and observations were made in the liquid phase.

[4] = target: Aurora B (Homo sapiens, UniProt Q96GD4); details: cited from earlier work
Chain of Aurora B (Q96GD4 whole entry): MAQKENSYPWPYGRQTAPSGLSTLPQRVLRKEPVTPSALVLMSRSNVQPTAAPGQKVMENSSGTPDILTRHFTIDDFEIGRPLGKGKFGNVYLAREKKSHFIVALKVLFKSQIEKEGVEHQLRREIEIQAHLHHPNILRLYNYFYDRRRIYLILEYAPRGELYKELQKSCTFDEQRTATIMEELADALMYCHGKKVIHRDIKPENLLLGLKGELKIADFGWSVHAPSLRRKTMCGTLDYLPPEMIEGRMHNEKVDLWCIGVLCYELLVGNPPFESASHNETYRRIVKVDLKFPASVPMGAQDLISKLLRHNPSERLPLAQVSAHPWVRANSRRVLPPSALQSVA

[5] = target: T1, Aurora A (Homo sapiens, UniProt O14965); details: cited from earlier work
T1 sequence (O14965 1-403): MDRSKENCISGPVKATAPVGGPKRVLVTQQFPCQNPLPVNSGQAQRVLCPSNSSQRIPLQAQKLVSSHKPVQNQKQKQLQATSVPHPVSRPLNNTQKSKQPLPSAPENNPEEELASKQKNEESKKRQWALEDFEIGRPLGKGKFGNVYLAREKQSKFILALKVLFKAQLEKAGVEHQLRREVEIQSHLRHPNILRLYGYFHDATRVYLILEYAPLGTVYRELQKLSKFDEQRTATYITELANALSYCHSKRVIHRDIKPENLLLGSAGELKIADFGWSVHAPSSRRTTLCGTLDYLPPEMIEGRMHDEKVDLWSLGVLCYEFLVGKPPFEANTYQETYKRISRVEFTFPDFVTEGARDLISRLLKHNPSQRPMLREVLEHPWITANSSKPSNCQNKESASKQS

[6] = target: T2, Aurora C (Homo sapiens, UniProt Q9UQB9); details: cited from earlier work
T2 sequence (Q9UQB9 1-309): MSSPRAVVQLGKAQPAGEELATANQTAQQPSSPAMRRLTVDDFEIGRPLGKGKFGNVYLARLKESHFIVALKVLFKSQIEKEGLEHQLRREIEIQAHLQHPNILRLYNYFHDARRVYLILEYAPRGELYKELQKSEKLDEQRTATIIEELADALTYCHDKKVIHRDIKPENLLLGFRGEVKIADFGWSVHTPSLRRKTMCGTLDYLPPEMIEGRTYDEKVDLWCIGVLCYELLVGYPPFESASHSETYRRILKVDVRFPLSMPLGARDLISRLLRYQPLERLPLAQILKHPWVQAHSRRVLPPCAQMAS

[7] = target: hERG (Homo sapiens, UniProt Q12809); details: cited from earlier work
Chain of hERG (Q12809 whole entry): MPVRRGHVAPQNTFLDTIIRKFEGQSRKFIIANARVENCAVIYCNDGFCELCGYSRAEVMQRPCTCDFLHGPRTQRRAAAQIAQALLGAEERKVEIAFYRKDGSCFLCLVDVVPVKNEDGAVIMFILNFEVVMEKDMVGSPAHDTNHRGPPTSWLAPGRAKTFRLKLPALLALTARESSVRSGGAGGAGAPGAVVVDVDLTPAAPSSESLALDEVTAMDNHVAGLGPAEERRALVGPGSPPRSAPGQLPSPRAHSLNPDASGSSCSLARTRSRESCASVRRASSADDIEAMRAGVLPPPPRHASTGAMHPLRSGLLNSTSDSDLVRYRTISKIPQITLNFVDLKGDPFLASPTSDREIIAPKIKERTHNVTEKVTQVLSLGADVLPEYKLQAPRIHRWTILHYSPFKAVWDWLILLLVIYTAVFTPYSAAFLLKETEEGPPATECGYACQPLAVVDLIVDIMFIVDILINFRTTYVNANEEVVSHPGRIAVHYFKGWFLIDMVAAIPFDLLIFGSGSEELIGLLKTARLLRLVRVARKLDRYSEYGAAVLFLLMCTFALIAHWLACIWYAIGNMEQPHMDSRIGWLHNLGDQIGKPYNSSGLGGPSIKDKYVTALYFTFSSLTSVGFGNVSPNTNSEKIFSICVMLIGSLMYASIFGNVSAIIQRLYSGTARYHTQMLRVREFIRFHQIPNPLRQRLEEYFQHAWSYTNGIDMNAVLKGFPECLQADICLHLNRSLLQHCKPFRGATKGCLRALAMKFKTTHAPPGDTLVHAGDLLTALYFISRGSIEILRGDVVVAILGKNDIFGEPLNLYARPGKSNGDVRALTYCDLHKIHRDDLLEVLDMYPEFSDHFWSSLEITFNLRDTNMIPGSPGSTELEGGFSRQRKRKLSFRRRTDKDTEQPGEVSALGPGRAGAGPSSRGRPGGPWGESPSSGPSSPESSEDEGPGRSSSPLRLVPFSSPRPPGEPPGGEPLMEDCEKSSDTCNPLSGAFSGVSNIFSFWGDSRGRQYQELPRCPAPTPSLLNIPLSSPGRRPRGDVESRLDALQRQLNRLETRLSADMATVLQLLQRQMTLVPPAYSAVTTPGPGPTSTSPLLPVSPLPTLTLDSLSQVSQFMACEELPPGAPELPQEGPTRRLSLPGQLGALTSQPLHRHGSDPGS

[8] = test system: cytochrome P450; details: cited from earlier work
[9] = Excipient solubilising ability (20% w/v aqueous excipient solutions, DMSO spike, observed for precipitation); assay type: physicochemical; details: for solubility: aqueous with cosolvent or surfactant or cyclodextrin, kinetic from dmso stock
Method: Promising non-ionic surfactants were further tested. Each was prepared as a 20% w/v aqueous solution.
The excipients tested were (HLB): Cremophor EL (12-14); Cremophor RH 40 (14-16); Labrasol ALF; Solutol HS15 (˜16); Poloxamer P124 (12-18); TPGS (˜13); and Gelucire 44/14 (˜11).
Initially, the concentrated DMSO solution was prepared at 30 mg/mL to give a starting concentration of 3 mg/mL of the compound of Formula (1) in the aqueous vehicle, and the concentration was reduced until a semi-solid excipient was identified which maintained a clear solution of the compound. No excipients solubilised the compound at concentrations >1.5 mg/mL in this experiment, but TPGS unexpectedly performed best—solubilising the compound at a concentration of 1.5 mg/mL in the aqueous vehicle (e.g. 100 μL portion of a 15 mg/mL solution of the compound in DMSO was added to each excipient solution to achieve the final concentration of 1.5 mg/mL). In TPGS the solution remained clear for up to 5 hours.

[10] = target: T3, FLT3 kinases (Homo sapiens, UniProt P36888); details: cited from earlier work
T3 sequence (P36888 27-993): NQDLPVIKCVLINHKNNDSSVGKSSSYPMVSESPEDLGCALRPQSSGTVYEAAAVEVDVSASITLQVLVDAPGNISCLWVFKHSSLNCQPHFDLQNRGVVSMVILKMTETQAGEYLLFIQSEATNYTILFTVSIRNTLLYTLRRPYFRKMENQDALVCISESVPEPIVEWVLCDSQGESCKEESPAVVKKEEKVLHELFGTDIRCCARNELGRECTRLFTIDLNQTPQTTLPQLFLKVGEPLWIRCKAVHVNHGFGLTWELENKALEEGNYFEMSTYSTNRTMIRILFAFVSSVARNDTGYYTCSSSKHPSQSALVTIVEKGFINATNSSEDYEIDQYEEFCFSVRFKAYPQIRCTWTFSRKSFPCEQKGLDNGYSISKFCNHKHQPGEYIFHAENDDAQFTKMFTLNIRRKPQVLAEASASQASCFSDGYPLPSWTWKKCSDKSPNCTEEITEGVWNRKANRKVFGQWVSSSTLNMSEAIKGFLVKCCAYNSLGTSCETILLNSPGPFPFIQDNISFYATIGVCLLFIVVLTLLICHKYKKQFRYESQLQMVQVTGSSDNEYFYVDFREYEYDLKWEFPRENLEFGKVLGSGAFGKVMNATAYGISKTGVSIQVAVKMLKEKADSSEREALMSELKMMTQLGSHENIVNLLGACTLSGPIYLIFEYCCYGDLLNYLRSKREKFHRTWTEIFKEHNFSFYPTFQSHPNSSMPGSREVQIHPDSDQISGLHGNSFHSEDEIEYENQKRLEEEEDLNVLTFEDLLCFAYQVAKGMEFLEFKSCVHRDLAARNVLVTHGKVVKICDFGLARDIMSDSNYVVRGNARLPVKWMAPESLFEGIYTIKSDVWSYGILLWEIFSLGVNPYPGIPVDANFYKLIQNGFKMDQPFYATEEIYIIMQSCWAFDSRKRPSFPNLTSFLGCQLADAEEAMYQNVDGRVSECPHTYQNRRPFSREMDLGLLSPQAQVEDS

- stability compared with other pharmaceutically acceptable salts [2]: greater stability
- solubility at 40 min ([3]; Capryol 90 (non-ionic surfactant), oil or lipid, in Capryol 90 (fatty acid ester)): < 4600 µg/mL
- solubility at 40 min ([3]; Capryol PC MG (non-ionic surfactant), oil or lipid, in Capryol PC MG (fatty acid ester)): < 3600 µg/mL
- solubility at 40 min ([3]; Cremophor EL (non-ionic surfactant), organic solvent or mixture, in Cremophor EL (glycerol derivative)): < 4900 µg/mL
- solubility at 40 min ([3]; Cremophor RH40 (non-ionic surfactant), organic solvent or mixture, in Cremophor RH40 (glycerol derivative)): < 4400 µg/mL
- solubility at 40 min ([3]; Gelucire 44/14 (non-ionic surfactant), organic solvent or mixture, in Gelucire 44/14 (fatty acid ester/glycerol derivative)): < 3500 µg/mL
- solubility at 40 min ([3]; Gelucire 50/13 (non-ionic surfactant), organic solvent or mixture, in Gelucire 50/13 (fatty acid ester/glycerol derivative)): < 2700 µg/mL
- solubility at 40 min ([3]; Kollisolv P124 (non-ionic surfactant), organic solvent or mixture, in Kollisolv P124 (co-polymer)): < 4500 µg/mL
- solubility at 40 min ([3]; Labrafac PC (non-ionic surfactant), oil or lipid, in Labrafac PC (fatty acid ester)): < 2100 µg/mL
- solubility at 40 min ([3]; Labrafil 1944 (non-ionic surfactant), oil or lipid, in Labrafil 1944 (glycerol derivative)): < 5000 µg/mL
- solubility at 40 min ([3]; Labrafil 2125 (non-ionic surfactant), oil or lipid, in Labrafil 2125 (glycerol derivative)): < 5500 µg/mL
- solubility at 40 min ([3]; Labrasol ALF (non-ionic surfactant), organic solvent or mixture, in Labrasol ALF (glycerol derivative)): < 3500 µg/mL
- solubility at 40 min ([3]; Miglyol 812N (non-ionic surfactant), oil or lipid, in Miglyol 812N (glycerol derivative)): < 3200 µg/mL
- solubility at 40 min ([3]; Softisan 378 (non-ionic surfactant), oil or lipid, in Softisan 378 (glycerol derivative)): < 4300 µg/mL
- solubility at 40 min ([3]; Tween 80 (non-ionic surfactant), organic solvent or mixture, in Tween 80 (sorbitan derivative), ~3 mg monofumarate, up to 1 ml, vortexed, sonicated, 45° C. 40 min): < 3700 µg/mL
- solubility at 40 min ([3]; Vitamin E TPGS (non-ionic surfactant), organic solvent or mixture, in Vitamin E TPGS (vitamin E derivative)): < 3200 µg/mL
SMILES: Cc1nn(C)cc1-c1nc2c(N3CCN(Cc4ccc(Cl)cc4)CC3)c(Cl)cnc2[nH]1.O=C(O)/C=C/C(=O)O [compound of Formula (1) fumarate, 6-chloro-7-(4-(4-chlorobenzyl)piperazin-1-yl)-2-(1,3-dimethyl-1H-pyrazol-4-yl)-3H-imidazo[4,5-b]pyridine fumarate]
- aqueous solubility compared with free base [1]: higher aqueous solubility than the free base

- time the suspension remained stable ([9]; 20% w/v aqueous Gelucire 44/14, 1.5 mg/mL): at least 10 days
- time the suspension remained stable ([9]; 20% w/v aqueous Poloxamer P124, 1.5 mg/mL): at least 10 days
- solubility ([9]; 20% w/v aqueous TPGS solution, 20% w/v aqueous TPGS, 100 μL DMSO solution added to 900 μL excipient solution, read-out: concentration solubilised (clear solution) in the aqueous vehicle): 1500 µg/mL
- time the solution remained clear ([9]; 20% w/v aqueous TPGS, 1.5 mg/mL): up to 5 hours
- solubility ([9]; 20% w/v aqueous Cremophor EL, Cremophor RH 40, Labrasol ALF, Solutol HS15, Poloxamer P124, TPGS, Gelucire 44/14, read-out: concentration solubilised by any tested excipient): ≤ 1500 µg/mL
SMILES: Cc1nn(C)cc1-c1nc2c(N3CCN(Cc4ccc(Cl)cc4)CC3)c(Cl)cnc2[nH]1 [compound of Formula (1), 6-chloro-7-(4-(4-chlorobenzyl)piperazin-1-yl)-2-(1,3-dimethyl-1H-pyrazol-4-yl)-3H-imidazo[4,5-b]pyridine]
- activity against Aurora B [4]: high activity
- activity against Aurora A [5]: high activity
- activity against Aurora C [6]: high activity
- interaction with hERG [7]: minimal interaction
- interaction with cytochrome P450 activity [8]: minimal interaction
- activity against FLT3 kinases [10]: high activity
